Source: the supplement of paper PMC11061612

What was measured:
Assay in all cases: Bliss excess, mean over the matrix (fraction); higher = more synergy
[1] = system: BALL-1 (B-Lymphoblastic Leukemia)
Procedure, shortened: (§1)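 Cell lines in DMEM/F12 or RPMI with 10% FBS were plated in 1536-well plates, held 24 hours at 37°C, 5% CO2, then given two-drug dose matrices for 72 hours (DMSO typically 0.2%). Viability was read by CellTiter-Glo 2.0 luminescence and scaled as inhibition from 0 (vehicle wells) to 1 (blank wells). Combination Emax is the second-highest inhibition in the matrix; Bliss excess is observed combination effect minus expected EA + EB − EA·EB, EA and EB being single-agent effects.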

[2] = system: Becker (Low Grade Glioma)
Procedure, shortened: as §1

[3] = system: CML-T1 (Chronic Myelogenous Leukemia)
Procedure, shortened: as §1

[4] = system: Calu-6 (Non-Small Cell Lung Carcinoma)
Procedure, shortened: as §1

ES-2 (Ovarian Carcinoma) = system: ES-2 (Ovarian Carcinoma)
Procedure, shortened: as §1

[5] = system: JHH-1 (Hepatocellular Carcinoma)
Procedure, shortened: as §1

[6] = system: KYSE-70 (Esophageal Squamous Cell Carcinoma)
Procedure, shortened: as §1

[7] = system: LAMA-84 (Chronic Myelogenous Leukemia)
Procedure, shortened: as §1

[8] = system: LOUCY (T-Lymphoblastic Leukemia)
Procedure, shortened: as §1

[9] = system: NCI-H1563 (Lung Adenocarcinoma)
Procedure, shortened: as §1

[10] = system: NCI-H810 (Non-Small Cell Lung Carcinoma)
Procedure, shortened: as §1

[11] = system: NKM-1 (Acute Myeloid Leukemia)
Procedure, shortened: as §1

[12] = system: OVTOKO (Ovarian Carcinoma)
Procedure, shortened: as §1

[13] = system: RERF-LC-KJ (Lung Adenocarcinoma)
Procedure, shortened: as §1

[14] = system: RL95-2 (Endometrial Carcinoma)
Procedure, shortened: as §1

[15] = system: RMG-I (Ovarian Carcinoma)
Procedure, shortened: as §1

[16] = system: RPMI-8866 (Chronic Myelogenous Leukemia)
Procedure, shortened: as §1

[17] = system: SJRH30 (Rhabdomyosarcoma)
Procedure, shortened: as §1

[18] = system: SK-MM-2 (Plasma Cell Myeloma)
Procedure, shortened: as §1

[19] = system: SW684 (Other Solid Carcinomas)
Procedure, shortened: as §1

SMILES | Bliss excess [1] | Bliss excess [2] | Bliss excess [3] | Bliss excess [4] | Bliss excess (ES-2 (Ovarian Carcinoma)) | Bliss excess [5] | Bliss excess [6] | Bliss excess [7] | Bliss excess [8] | Bliss excess [9] | Bliss excess [10] | Bliss excess [11] | Bliss excess [12] | Bliss excess [13] | Bliss excess [14] | Bliss excess [15] | Bliss excess [16] | Bliss excess [17] | Bliss excess [18] | Bliss excess [19]
Cc1c2c(nn1C)CSCc1cc(n(C)n1)CSc1cc(c3ccccc3c1)OCCCc1c(C(=O)O)n(C)c3c-2c(Cl)ccc13 [AZD5991] + C1CN(CCC1(C(=O)N[C@@H](CCO)C2=CC=C(C=C2)Cl)N)C3=NC=NC4=C3C=CN4 [Capivasertib] (first compound max 1 µM, 7x7, partner max 3 µM) | 0.0369 | -0.0169 | -0.0081 | 0.0106 | -0.0021 | 0.0258 | 0.0065 | 0.0007 | 0.0143 | 0.0837 | 0.0083 | -0.0335 | -0.0287 | -0.0112 | 0.0001 | -0.0488 | -0.0525 | 0.0568 | -0.0186 | -0.0298
Cc1c2c(nn1C)CSCc1cc(n(C)n1)CSc1cc(c3ccccc3c1)OCCCc1c(C(=O)O)n(C)c3c-2c(Cl)ccc13 [AZD5991] + C=CCn1c(=O)c2cnc(Nc3ccc(N4CCN(C)CC4)cc3)nc2n1-c1cccc(C(C)(C)O)n1 [AZD1775] (first compound max 1 µM, partner max 1 µM) | -0.0181 | -0.0319 | -0.0151 | -0.0963 | -0.0399 | 0.03 | 0.015 | 0.0422 | -0.003 | 0.0004 | 0.0025 | -0.0519 | 0.0474 | 0.0255 | 0.0116 | -0.0369 | -0.0441 | -0.0362 | -0.112 | -0.0161
Cc1c2c(nn1C)CSCc1cc(n(C)n1)CSc1cc(c3ccccc3c1)OCCCc1c(C(=O)O)n(C)c3c-2c(Cl)ccc13 [AZD5991] + CC1(C)CCC(CN2CCN(c3ccc(C(=O)NS(=O)(=O)c4ccc(NCC5CCOCC5)c([N+](=O)[O-])c4)c(Oc4cnc5[nH]ccc5c4)c3)CC2)=C(c2ccc(Cl)cc2)C1 [Venetoclax] (first compound max 1 µM, 7x7, partner max 1 µM) | 0.117 | -0.0033 | 0.116 | -0.0014 | -0.0082 | 0.128 | -0.0296 | -0.0185 | 0.154 | 0.0236 | -0.0267 | 0.0517 | -0.0027 | 0.0047 | -0.0463 | -0.0289 | -0.0138 | 0.0289 | 0.0209 | -0.0596
Cc1c2c(nn1C)CSCc1cc(n(C)n1)CSc1cc(c3ccccc3c1)OCCCc1c(C(=O)O)n(C)c3c-2c(Cl)ccc13 [AZD5991] + CCN(CCO)CCCOc1ccc2c(Nc3cc(CC(=O)Nc4cccc(F)c4)[nH]n3)ncnc2c1 [AZD2811] (first compound max 1 µM, 7x7, partner max 1 µM) | 0.213 | -0.0165 | 0.0645 | -0.0096 | -0.0298 | 0.0603 | 0.0651 | 0.128 | -0.0389 | -0.0248 | 0.114 | 0.0291 | 0.0153 | 0.0402 | 0.0272 | 0.0126 | 0.149 | 0.0922 | -0.0451 | -0.069
Cc1c2c(nn1C)CSCc1cc(n(C)n1)CSc1cc(c3ccccc3c1)OCCCc1c(C(=O)O)n(C)c3c-2c(Cl)ccc13 [AZD5991] + CN(C)CCCOc1ccc(-c2ccc3ncc4c(c3c2)n(C2CCOCC2)c(=O)n4C)cn1 [AZD0156] (first compound max 1 µM, 7x7, partner max 1 µM) | 0.0361 | -0.0128 | 0.0208 | 0.0052 | 0.0018 | 0.0048 | 0.0286 | -0.0051 | 0.0428 | -0.009 | -0.0034 | -0.152 | 0.0042 | -0.0296 | -0.0252 | 0.0092 | -0.026 | 0.0026 | 0.0254 | -0.0222
Cc1c2c(nn1C)CSCc1cc(n(C)n1)CSc1cc(c3ccccc3c1)OCCCc1c(C(=O)O)n(C)c3c-2c(Cl)ccc13 [AZD5991] + C[C@@H]1COCCN1C2=NC(=NC(=C2)C3(CC3)[S@](=N)(=O)C)C4=C5C=CNC5=NC=C4 [AZD6738] (first compound max 1 µM, 7x7, partner max 10 µM) | 0.0406 | 0.0152 | -0.012 | 0.0282 | 0.0424 | 0.106 | 0.0485 | -0.0056 | -0.0398 | 0.0224 | 0.0552 | 0.024 | 0.0404 | 0.0331 | -0.0023 | 0.0575 | 0.0013 | 0.0225 | -0.0607 | 0.0472
Cc1c2c(nn1C)CSCc1cc(n(C)n1)CSc1cc(c3ccccc3c1)OCCCc1c(C(=O)O)n(C)c3c-2c(Cl)ccc13 [AZD5991] + C[C@@H](Nc1cc(F)cc(F)c1)c1cc(C(=O)N(C)C)cc2c(=O)cc(N3CCOCC3)oc12 [AZD8186] (first compound max 1 µM, 7x7, partner max 3 µM) | -0.0163 | 0.0192 | -0.0081 | -0.0018 | -0.0108 | 0.0056 | -0.0136 | -0.0037 | -0.0772 | 0.0003 | -0.034 | -0.0247 | -0.0196 | 0.0598 | -0.0802 | -0.0247 | -0.041 | -0.0138 | -0.0419 | -0.0553
Cc1c2c(nn1C)CSCc1cc(n(C)n1)CSc1cc(c3ccccc3c1)OCCCc1c(C(=O)O)n(C)c3c-2c(Cl)ccc13 [AZD5991] + Cc1cc2ncnn2cc1Nc1ncc2c(n1)n(C1CCOCC1)c(=O)n2C [AZD7648] (first compound max 1 µM, 7x7, partner max 10 µM) | -0.0064 | 0.0005 | -0.0205 | -0.0338 | -0.0545 | -0.0585 | 0.0024 | -0.01 | -0.0479 | -0.0185 | -0.0484 | -0.0265 | -0.0238 | 0.0171 | -0.0033 | -0.0389 | -0.0497 | -0.0214 | 0.0087 | -0.0222
Cc1c2c(nn1C)CSCc1cc(n(C)n1)CSc1cc(c3ccccc3c1)OCCCc1c(C(=O)O)n(C)c3c-2c(Cl)ccc13 [AZD5991] + Cn1cnc2c(F)c(Nc3ccc(Br)cc3Cl)c(C(=O)NOCCO)cc21 [Selumetinib] (first compound max 1 µM, 7x7, partner max 3 µM) | -0.0064 | -0.0092 | 0.0516 | 0.0572 | 0.0389 | 0.0408 | 0.0244 | 0.102 | 0.0129 | 0.0158 | -0.0133 | -0.0014 | -0.039 | 0.0466 | 0.0336 | -0.0027 | -0.0462 | 0.0386 | -0.0194 | -0.0091
C[C@@H]1COCCN1c1cc(C2([S@](C)(=N)=O)CC2)nc(-c2ccnc3[nH]ccc23)n1 [AZD6738] + O=C(c1cc(Cc2n[nH]c(=O)c3ccccc23)ccc1F)N1CCN(C(=O)C2CC2)CC1 [Olaparib] (first compound max 10 µM, 7x7, partner max 10 µM) | -0.0204 | -0.0077 | -0.0182 | -0.0679 | -0.0136 | -0.0206 | 0.021 | 0.0233 | -0.0284 | -0.0116 | -0.008 | -0.0366 | 0.0182 | 0.0228 | 0.0105 | 0.0255 | -0.0143 | -0.0205 | -0.0084 | -0.0144
Cc1cc2ncnn2cc1Nc1ncc2c(n1)n(C1CCOCC1)c(=O)n2C [AZD7648] + C=CCn1c(=O)c2cnc(Nc3ccc(N4CCN(C)CC4)cc3)nc2n1-c1cccc(C(C)(C)O)n1 [AZD1775] (first compound max 10 µM, partner max 1 µM) | -0.0169 | -0.0269 | 0.0112 | -0.0282 | 0.0248 | 0.001 | 0.0184 | 0.046 | 0.0464 | -0.0041 | -0.0103 | -0.0556 | 0.0188 | 0.0509 | -0.0629 | 0.02 | -0.0616 | 0.0139 | -0.0214 | -0.017
Cc1cc2ncnn2cc1Nc1ncc2c(n1)n(C1CCOCC1)c(=O)n2C [AZD7648] + CCN(CCO)CCCOc1ccc2c(Nc3cc(CC(=O)Nc4cccc(F)c4)[nH]n3)ncnc2c1 [AZD2811] (first compound max 10 µM, 7x7, partner max 1 µM) | 0.13 | 0.0154 | 0.069 | 0.0268 | 0.0083 | -0.0287 | 0.0476 | 0.115 | -0.043 | 0.0036 | -0.0162 | 0.0545 | -0.0011 | 0.0428 | 0.0646 | 0.0097 | -0.0233 | 0.0417 | -0.0115 | -0.027
Cc1cc2ncnn2cc1Nc1ncc2c(n1)n(C1CCOCC1)c(=O)n2C [AZD7648] + CN(C)CCCOc1ccc(-c2ccc3ncc4c(c3c2)n(C2CCOCC2)c(=O)n4C)cn1 [AZD0156] (first compound max 10 µM, 7x7, partner max 1 µM) | -0.0108 | 0.0066 | -0.0092 | 0.0024 | 0.029 | 0.0063 | 0.0213 | -0.0024 | 0.0007 | -0.0164 | 0.0125 | -0.0039 | -0.0537 | 0.0285 | 0.0161 | -0.0322 | -0.0363 | 0.0105 | -0.0552 | -0.056
Cc1cc2ncnn2cc1Nc1ncc2c(n1)n(C1CCOCC1)c(=O)n2C [AZD7648] + C[C@@H]1COCCN1C2=NC(=NC(=C2)C3(CC3)[S@](=N)(=O)C)C4=C5C=CNC5=NC=C4 [AZD6738] (first compound max 10 µM, 7x7, partner max 10 µM) | 0.0025 | -0.0207 | -0.0465 | -0.018 | 0.0572 | 0.0354 | 0.0213 | -0.0284 | 0.0271 | 0.0367 | -0.0367 | -0.0051 | 0.0118 | 0.0386 | 0.024 | 0.0557 | -0.028 | 0.0113 | 0.0022 | -0.0272
